Test results reported in PMC5037861 (BMC Research Notes, 2016).
Values belong to the compound of their own block, whether it stands above or below them.

What was measured:
endogenous B2R [1] = biological target: T1, endogenous B2R (Homo sapiens, UniProt P30411); set-up: The human umbilical vein is a contractile bioassay for the endogenous B2R; from tissue; host or cells: human isolated umbilical vein (A2); conditions: cited from earlier work; for pA2: antagonism of BK-induced contraction
T1 sequence (P30411 1-391): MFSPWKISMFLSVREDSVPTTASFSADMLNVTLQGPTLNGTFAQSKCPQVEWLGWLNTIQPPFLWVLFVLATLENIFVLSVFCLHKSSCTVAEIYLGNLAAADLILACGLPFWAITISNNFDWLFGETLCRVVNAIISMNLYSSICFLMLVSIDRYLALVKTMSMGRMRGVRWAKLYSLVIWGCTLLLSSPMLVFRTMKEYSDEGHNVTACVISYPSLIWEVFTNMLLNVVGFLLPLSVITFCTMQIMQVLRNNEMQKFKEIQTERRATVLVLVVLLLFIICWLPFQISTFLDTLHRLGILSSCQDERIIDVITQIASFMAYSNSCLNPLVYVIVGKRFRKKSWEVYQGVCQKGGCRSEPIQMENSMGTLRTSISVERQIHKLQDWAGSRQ

human B2R [2] = biological target: T2, human B2R (Homo sapiens, UniProt P30411); experiment: Competition of [3H]BK (3 nM) binding to HEK 293a cells stably expressing myc-tagged human B2R; conditions: from binding competition IC50 values
T2 construct: expressed in transfected cells; host or cells: HEK 293a
T2 sequence (P30411 1-391): T1 sequence (P30411 1-391)
Description: Values are the means ± SEM. of the number of duplicate determinations indicated by n. Average specific binding without competitor (100 %) averaged 133.8 fmol/well.

[3] = test system: T3, β2-adrenoceptor-GFP Topaz fusion protein; experiment: Confocal microscopy of HEK 293 cells transiently expressing β2-adrenoceptor-GFP Topaz (specificity control); assay type: cell-based; conditions: for labeling of cells expressing β2-adrenoceptor-GFP Topaz: B-10665 10 nM, B-10666 100 nM, 30 min; for β2-adrenoceptor-GFP endocytosis: isoproterenol 100 nM 30 min, propranolol 1 μM pretreatment
T3 construct: expressed in transfected cells; host or cells: HEK 293 (transient, polyethylenimine); vector a gift from Prof; Michel Bouvier

human myc-tagged B2Rs = test system: T4, human myc-tagged B2Rs; experiment: Cytofluorometry of detached HEK 293a cells stably expressing human myc-tagged B2Rs; assay type: cell-based
T4 construct: expressed in transfected cells; host or cells: HEK 293a
Description: A subclone of HEK 293 cells, called HEK 293a, originally obtained from Sigma-Aldrich was used in these experiments, either as a non-transfected cell type or as one stably expressing myc-tagged human B2Rs. These cells were grown in Dulbecco’s modified Eagle’s medium supplemented with 10 % fetal bovine serum, 1 % L-glutamine, and 1 % penicillin–streptomycin stock solutions (100×). Cells were detached using the protease-free Cell Dissociation Buffer (Invitrogen), incubated in D-MEM without serum at 37 °C for 30 min under agitation in the presence of a Cy7-conjugated ligands and other drugs, rapidly centrifuged (30 s, 11,000g) and resuspended in phosphate buffered saline. Then, the fluorescence of the cell suspensions was assessed using the BD SORP LSR II cell analyzer for the uptake of the as a function of stimulation and transgene expression. The cytofluorometry results were analyzed using the BD FACS DIVA software.

rat B2R = test system: T5, rat B2R; experiment: IVIS infrared fluorescence imaging of cell wells, HEK 293a cells expressing rat myc-B2R; assay type: cell-based; conditions: 1–10 nM, 30 min, 37 °C
T5 construct: expressed in transfected cells; host or cells: HEK 293a
Description: (§1) The apparatus was set in fluorescence mode with filters at 675 nm (excitation) and 831 nm (emission), medium binning and 60 s exposure time. This experiment exploited HEK 293a cells grown in 24-well plates that stably expressed either human or rat B2R sequences N-terminally tagged with the myc epitope. Expression of these receptors as a function of pharmacologic treatment was controlled in separate plates of cells that were not fixed or permeabilized using the binding of anti-myc monoclonal antibody (clone 4A6, Millipore, dilution 1:1000) added along goat horseradish peroxidase-conjugated anti-mouse IgG antibodies (Santa Cruz, dilution 1:1000). […] The resulting blue precipitate was photographed at the macroscopic scale.

human B2R [4] = biological target: T2, human B2R; experiment: IVIS infrared fluorescence imaging of cell wells, HEK 293a cells expressing human myc-B2R; assay type: cell-based; conditions: 1–10 nM, 30 min, 37 °C
Description: as §1

endogenous B2R [5] = biological target: T1, endogenous B2R; experiment: IVIS infrared fluorescence imaging of slices of human umbilical cord; set-up: The human umbilical vein is a contractile bioassay for the endogenous B2R; from tissue; host or cells: human isolated umbilical vein (A2); slices of human umbilical cord (A8); conditions: up to 250 nM, data not shown
rabbit B2R-GFP = test system: T6, rabbit B2R-GFP; experiment: Confocal microscopy of HEK 293 cells stably expressing B2R-GFP; assay type: cell-based; conditions: for infrared labeling of cells: followed by rinsing
T6 construct: expressed in transfected cells; host or cells: HEK 293

endogenous B2R [6] = biological target: T1, endogenous B2R; experiment: Human isolated umbilical vein contractility assay; set-up: The human umbilical vein is a contractile bioassay for the endogenous B2R; from tissue; host or cells: human isolated umbilical vein (A2); slices of human umbilical cord (A8); conditions: agonist contraction; based on an extrapolated concentration-effect curve
Description: Local ethics review boards approved the anonymous use of segments of human umbilical cords obtained following elective cesarean sections; informed consent was obtained from the mothers. Novel Cy-7 conjugated B2R ligands were assayed via the contraction of the human isolated umbilical vein [9, 10]. Cumulative concentration effect curves were constructed for the agonist version and its potency compared to that of BK. […] Results are presented as mean ± SEM. Radioligand binding data were fitted by nonlinear regression to a one-site competition equation using a least-square method (Prism 5.0, GraphPad Software Inc., San Diego, CA, USA) and IC50 values with their 95 % confidence limits were calculated from this procedure. The same computer program was used to draw concentration-effect curves (least square fitting of sigmoidal dose–response equation with variable slope) and to derive contractile EC50 values.

Compound: N=C(N)NCCC[C@@H](N)C(=O)N[C@@H](CCCNC(=N)N)C(=O)N1CCC[C@H]1C(=O)N1C[C@H](O)C[C@H]1C(=O)NCC(=O)N[C@H](C(=O)N[C@@H](CO)C(=O)N[C@@H](C(=O)N1[C@H](C(=O)N[C@@H](CCCNC(=N)N)C(=O)O)C[C@@H]2CCCC[C@@H]21)C1Cc2ccccc2C1)C1Cc2ccccc2C1 [Peptide B-9430, D-Arg-[Hyp^3,Igl^5,D-Igl^7,Oic^8]-BK]
pA2 (endogenous B2R [1]): 7.7

loss of affinity vs. parent peptide (human B2R [2]): ~ twofold
Compound: N=C(N)NCCC[C@@H](N)C(=O)N[C@@H](CCCNC(=N)N)C(=O)N1CCC[C@H]1C(=O)N1C[C@H](O)C[C@H]1C(=O)NCC(=O)N[C@H](C(=O)N[C@@H](CO)C(=O)N1[C@H](C(=O)N[C@H](C(=O)N[C@@H](CCCNC(=N)N)C(=O)O)C2Cc3ccccc3C2)C[C@@H]2CCCC[C@@H]21)C1Cc2ccccc2C1 [Peptide B-9972, D-Arg-[Hyp^3,Igl^5,Oic^7,Igl^8]-BK, reference compound]

detection of endogenous B2R (endogenous B2R [5]): could not detect endogenous B2R presence
loss of affinity vs. parent peptide (human B2R [2]): about equipotent to its parent peptide
Compound: CN1C(=CC=C2C=C(C=CC3=[N+](CCCCCC(=O)N[C@H](CCCNC(=N)N)C(=O)N[C@@H](CCCNC(=N)N)C(=O)N4CCC[C@H]4C(=O)N4C[C@H](O)C[C@H]4C(=O)NCC(=O)N[C@H](C(=O)N[C@@H](CO)C(=O)N[C@@H](C(=O)N4[C@H](C(=O)N[C@@H](CCCNC(=N)N)C(=O)O)C[C@@H]5CCCC[C@@H]54)C4Cc5ccccc5C4)C4Cc5ccccc5C4)c4ccccc4C3(C)C)CCC2)C(C)(C)c2ccccc21 [Peptide B-10665, Cy7-B-9430]
labeling of cells expressing β2-adrenoceptor-GFP Topaz [3]: Lack of labeling
binding detected by infrared fluorescence (cell labeling) (human myc-tagged B2Rs; 30 min, 37 °C, detached intact cells): specific binding that plateaued in the low nanomolar range
infrared staining of cell wells (rat B2R): more so for the rat construction
infrared staining of cell wells (human B2R [4]): stained the cell wells (from a 24-well plate) in a concentration-dependent manner
infrared labeling of cells (rabbit B2R-GFP; 30 min, 37 °C): labelled essentially plasma membranes in the infrared if and only if B2R-GFP was expressed

loss of potency vs. BK (endogenous B2R [6]): 4240 fold
loss of affinity vs. parent peptide (human B2R [2]): ~ 35 fold
Compound: CN1C(=CC=C2C=C(C=CC3=[N+](CCCCCC(=O)N[C@H](CCCNC(=N)N)C(=O)N[C@@H](CCCNC(=N)N)C(=O)N4CCC[C@H]4C(=O)N4C[C@H](O)C[C@H]4C(=O)NCC(=O)N[C@H](C(=O)N[C@@H](CO)C(=O)N4[C@H](C(=O)N[C@H](C(=O)N[C@@H](CCCNC(=N)N)C(=O)O)C5Cc6ccccc6C5)C[C@@H]5CCCC[C@@H]54)C4Cc5ccccc5C4)c4ccccc4C3(C)C)CCC2)C(C)(C)c2ccccc21 [Peptide B-10666, Cy7-B-9972]
labeling of cells expressing β2-adrenoceptor-GFP Topaz [3]: Lack of labeling
infrared labeling of cells (rabbit B2R-GFP; 30 min, 37 °C): did not label untransfected cells or icatibant-pretreated receptor-expressing cells
endocytosis of B2R-GFP (rabbit B2R-GFP; 30 min, 37 °C, live cells): determined the endocytosis of a fraction of the plasma membrane receptors

Compound: CC(C)NCC(O)c1ccc(O)c(O)c1 (centres unmarked) [isoproterenol, reference compound]
β2-adrenoceptor-GFP endocytosis [3]: the receptors are then translocated into endosomes

Compound: CC(C)NCC(O)COc1cccc2ccccc12 (centres unmarked) [propranolol, reference compound]
β2-adrenoceptor-GFP endocytosis [3]: agonist-induced endocytosis was prevented

Compound: FTC-B-9430
pA2 (endogenous B2R [1]): 6.96

Compound: fluorescein-5-thiocarbamoyl (FTC)-B-9972 [FTC-B-9972]
EC50 (endogenous B2R [1]; contraction): 108 nM

Compound: icatibant [reference compound]
competition of B-10665 binding (human myc-tagged B2Rs; icatibant applied 15 min before B-10665): extensive competition
prevention of B-10665 (10 nM) plasma membrane fluorescence (rabbit B2R-GFP; pretreatment of B2R-GFP-expressing cells): prevented
